Data published in ChEMBL document CHEMBL5357082, “Identification and Optimization of Small Molecule Pyrazolopyrimidine TLR7 Agonists for Applications in Immuno-oncology” (ACS Med Chem Lett, 2024).

Key:
[1] = target: T1, Toll-like receptor 7 (Homo sapiens, UniProt Q9NYK1); test: Agonist activity at human TLR7 in HEK-Blue hTLR7 cells harboring SEAP reporter transgene incubated for 18 hrs by quanti-blue reagent based assay; type: cell-based
T1 sequence (Q9NYK1 whole entry): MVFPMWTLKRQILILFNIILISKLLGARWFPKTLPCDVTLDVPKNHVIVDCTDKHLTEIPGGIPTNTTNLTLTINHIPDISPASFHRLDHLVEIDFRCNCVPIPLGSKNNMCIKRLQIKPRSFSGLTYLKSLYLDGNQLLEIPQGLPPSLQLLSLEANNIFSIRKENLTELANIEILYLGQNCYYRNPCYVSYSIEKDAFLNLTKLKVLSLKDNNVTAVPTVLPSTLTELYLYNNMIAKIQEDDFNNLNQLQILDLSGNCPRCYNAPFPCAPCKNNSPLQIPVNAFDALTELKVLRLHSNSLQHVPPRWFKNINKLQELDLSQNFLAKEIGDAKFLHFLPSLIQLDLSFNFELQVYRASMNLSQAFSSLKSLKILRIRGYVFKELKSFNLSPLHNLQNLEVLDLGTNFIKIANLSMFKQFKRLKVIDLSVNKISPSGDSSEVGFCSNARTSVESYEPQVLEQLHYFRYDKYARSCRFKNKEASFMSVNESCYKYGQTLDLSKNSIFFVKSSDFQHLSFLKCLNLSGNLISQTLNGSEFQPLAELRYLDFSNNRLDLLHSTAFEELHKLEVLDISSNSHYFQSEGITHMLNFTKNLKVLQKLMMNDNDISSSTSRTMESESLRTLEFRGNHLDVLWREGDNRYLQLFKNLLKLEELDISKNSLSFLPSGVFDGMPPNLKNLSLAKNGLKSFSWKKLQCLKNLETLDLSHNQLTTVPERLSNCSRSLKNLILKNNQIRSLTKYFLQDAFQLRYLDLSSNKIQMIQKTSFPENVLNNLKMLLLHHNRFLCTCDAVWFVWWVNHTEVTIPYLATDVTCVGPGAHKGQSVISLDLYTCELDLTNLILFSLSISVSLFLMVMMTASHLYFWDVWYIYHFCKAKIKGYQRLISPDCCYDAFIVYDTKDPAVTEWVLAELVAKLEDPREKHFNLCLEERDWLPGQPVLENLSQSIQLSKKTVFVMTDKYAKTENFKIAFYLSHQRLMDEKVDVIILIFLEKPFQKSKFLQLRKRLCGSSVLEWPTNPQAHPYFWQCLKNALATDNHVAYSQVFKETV

[2] = target: Voltage-gated inwardly rectifying potassium channel KCNH2 (Homo sapiens, UniProt Q12809); test: Inhibition of hERG; type: toxicity
[3] = target: T2, Toll-like receptor 8 (Homo sapiens, UniProt Q9NR97); test: Agonist activity at human TLR8
T2 sequence (Q9NR97 whole entry): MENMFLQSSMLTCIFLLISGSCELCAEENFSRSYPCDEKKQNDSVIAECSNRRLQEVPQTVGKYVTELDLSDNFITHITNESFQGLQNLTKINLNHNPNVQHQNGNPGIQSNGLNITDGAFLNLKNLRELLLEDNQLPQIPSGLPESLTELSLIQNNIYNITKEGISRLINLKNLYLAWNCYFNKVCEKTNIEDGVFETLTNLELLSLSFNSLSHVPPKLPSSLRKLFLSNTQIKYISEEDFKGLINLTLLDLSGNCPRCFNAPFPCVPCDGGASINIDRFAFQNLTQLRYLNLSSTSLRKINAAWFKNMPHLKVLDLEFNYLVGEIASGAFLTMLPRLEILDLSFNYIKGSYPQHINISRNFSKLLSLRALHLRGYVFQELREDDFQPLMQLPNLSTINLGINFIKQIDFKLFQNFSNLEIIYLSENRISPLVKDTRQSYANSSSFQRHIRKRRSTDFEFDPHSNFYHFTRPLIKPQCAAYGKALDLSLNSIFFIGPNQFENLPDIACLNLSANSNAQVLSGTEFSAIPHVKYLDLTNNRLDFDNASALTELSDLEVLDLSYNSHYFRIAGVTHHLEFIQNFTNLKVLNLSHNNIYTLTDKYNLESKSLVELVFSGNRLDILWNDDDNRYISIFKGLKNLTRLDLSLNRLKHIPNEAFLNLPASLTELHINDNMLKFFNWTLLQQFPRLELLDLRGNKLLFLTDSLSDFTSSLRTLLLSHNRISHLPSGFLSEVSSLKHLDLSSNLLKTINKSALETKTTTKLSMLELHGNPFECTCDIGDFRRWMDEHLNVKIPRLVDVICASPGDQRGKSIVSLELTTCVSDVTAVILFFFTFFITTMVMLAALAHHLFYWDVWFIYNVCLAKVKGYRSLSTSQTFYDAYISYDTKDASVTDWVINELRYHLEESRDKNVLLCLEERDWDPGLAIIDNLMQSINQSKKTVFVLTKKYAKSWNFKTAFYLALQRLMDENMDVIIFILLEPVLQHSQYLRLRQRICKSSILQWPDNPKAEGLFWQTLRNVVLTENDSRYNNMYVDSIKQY

[4] = Half life in nontumor bearing Balb/C mouse at 0.5 mg/kg; type: ADME, organism-based; conditions: in vivo
[5] = Cytotoxicity against PHA-activated T-cells (unknown origin) assessed as inhibition of IL-2 induced cell proliferation measured after 72 hrs by MTS assay; type: toxicity, cell-based
[6] = target: T3, Cytochrome P450 1A2 (Homo sapiens, UniProt P05177); test: Inhibition of CYP1A2 (unknown origin); type: ADME
T3 sequence (P05177 whole entry): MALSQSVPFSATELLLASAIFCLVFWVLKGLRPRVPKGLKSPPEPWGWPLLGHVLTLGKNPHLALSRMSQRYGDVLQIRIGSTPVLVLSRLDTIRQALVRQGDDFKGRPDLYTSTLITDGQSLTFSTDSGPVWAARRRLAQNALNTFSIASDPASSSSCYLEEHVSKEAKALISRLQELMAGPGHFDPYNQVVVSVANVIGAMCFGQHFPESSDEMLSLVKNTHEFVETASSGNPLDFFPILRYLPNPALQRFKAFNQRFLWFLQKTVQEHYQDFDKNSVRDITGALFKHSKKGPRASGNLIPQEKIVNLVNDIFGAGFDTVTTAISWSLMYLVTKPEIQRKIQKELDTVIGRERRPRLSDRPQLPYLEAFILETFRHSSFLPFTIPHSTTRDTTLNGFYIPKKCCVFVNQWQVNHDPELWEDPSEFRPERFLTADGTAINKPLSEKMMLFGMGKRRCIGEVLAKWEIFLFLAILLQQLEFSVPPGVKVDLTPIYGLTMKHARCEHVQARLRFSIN

[7] = target: Cytochrome P450 2C19 (Homo sapiens, UniProt P33261); test: Inhibition of CYP2C19 (unknown origin); type: ADME
[8] = target: T4, Cytochrome P450 3A4 (Homo sapiens, UniProt P08684); test: Inhibition of CYP3A4 (unknown origin) using BFC as substrate preincubated with compound followed by substrate addition at 5 mins; type: ADME
[9] = target: T4, Cytochrome P450 3A4; test: Inhibition of CYP3A4 (unknown origin) using BFC as substrate preincubated with compound followed by substrate addition at 30 mins; type: ADME

T4 sequence (P08684 whole entry): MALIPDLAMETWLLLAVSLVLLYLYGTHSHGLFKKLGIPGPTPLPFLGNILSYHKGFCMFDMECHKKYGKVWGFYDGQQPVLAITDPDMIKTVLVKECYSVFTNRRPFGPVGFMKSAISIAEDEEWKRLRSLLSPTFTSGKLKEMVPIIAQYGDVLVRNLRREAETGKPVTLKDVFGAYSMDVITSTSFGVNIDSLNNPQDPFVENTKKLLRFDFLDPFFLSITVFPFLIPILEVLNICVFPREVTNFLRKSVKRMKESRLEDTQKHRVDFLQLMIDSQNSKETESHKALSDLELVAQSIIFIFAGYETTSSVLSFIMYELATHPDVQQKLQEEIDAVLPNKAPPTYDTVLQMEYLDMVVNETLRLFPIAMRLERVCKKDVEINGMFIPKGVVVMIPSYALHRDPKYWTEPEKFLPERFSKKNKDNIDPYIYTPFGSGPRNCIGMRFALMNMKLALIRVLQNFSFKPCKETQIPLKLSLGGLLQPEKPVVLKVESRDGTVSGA
Sequence of Voltage-gated inwardly rectifying potassium channel KCNH2 (Q12809 whole entry): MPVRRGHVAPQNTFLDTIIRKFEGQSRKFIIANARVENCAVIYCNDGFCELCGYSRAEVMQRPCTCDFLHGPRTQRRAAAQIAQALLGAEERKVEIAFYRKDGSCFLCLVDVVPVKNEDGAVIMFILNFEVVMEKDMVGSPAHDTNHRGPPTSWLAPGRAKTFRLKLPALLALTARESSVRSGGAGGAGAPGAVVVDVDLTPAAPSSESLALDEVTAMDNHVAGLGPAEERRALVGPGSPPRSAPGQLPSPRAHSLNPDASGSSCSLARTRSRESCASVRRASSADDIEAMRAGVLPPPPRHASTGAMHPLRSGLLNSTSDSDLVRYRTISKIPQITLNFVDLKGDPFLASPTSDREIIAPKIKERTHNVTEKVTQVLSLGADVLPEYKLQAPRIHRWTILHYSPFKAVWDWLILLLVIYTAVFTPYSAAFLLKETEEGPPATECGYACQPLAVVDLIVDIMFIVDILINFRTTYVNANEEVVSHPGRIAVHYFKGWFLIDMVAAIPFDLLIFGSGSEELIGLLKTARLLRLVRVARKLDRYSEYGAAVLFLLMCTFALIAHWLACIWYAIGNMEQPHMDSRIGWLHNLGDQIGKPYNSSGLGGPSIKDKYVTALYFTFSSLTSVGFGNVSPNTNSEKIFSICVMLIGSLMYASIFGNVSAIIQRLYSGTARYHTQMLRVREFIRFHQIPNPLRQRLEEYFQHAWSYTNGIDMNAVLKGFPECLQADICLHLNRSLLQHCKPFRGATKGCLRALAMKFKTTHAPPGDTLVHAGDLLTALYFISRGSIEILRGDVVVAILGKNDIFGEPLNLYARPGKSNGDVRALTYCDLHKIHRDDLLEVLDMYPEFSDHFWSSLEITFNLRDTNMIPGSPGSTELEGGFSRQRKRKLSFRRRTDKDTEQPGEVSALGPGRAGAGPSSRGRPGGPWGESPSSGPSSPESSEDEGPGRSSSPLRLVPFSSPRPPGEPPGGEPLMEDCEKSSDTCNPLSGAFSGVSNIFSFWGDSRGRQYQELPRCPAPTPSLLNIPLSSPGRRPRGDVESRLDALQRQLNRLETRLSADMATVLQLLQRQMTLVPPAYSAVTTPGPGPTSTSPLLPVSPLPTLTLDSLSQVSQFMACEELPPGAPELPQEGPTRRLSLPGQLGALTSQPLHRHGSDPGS
Sequence of Cytochrome P450 2C19 (P33261 whole entry): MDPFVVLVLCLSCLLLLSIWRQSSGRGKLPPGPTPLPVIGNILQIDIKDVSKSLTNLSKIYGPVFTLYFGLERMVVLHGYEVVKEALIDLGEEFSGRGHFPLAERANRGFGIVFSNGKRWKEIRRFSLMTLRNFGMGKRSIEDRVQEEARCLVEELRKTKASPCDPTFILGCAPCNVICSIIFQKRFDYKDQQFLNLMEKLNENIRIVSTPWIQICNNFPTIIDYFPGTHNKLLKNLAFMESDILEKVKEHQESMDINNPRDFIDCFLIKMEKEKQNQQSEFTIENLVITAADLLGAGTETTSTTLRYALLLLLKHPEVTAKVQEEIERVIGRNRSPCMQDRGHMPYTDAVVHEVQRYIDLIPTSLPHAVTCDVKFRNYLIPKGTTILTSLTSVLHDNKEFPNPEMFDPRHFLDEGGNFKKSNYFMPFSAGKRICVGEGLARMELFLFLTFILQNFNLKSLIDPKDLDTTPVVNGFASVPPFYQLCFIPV

Q: Which EC50 [1] does the source give for CCC[C@@H](CCO)Nc1nc(N)nc2cnn(Cc3ncc(C4CCN(C5CCOCC5)CC4)cc3OC)c12 here?
A: 0.013 µM

Q: What about the IC50 [2] of the same compound?
A: > 50 µM

Q: And the EC50 [3]?
A: > 5 µM

Q: What about the half-life [4] of the same compound?
A: 6.9 h

Q: What about the IC50 at 72 h [5] of the same compound?
A: > 25 µM

Q: And the IC50 [6]?
A: > 20 µM

Q: What about the IC50 [7] of the same compound?
A: > 20 µM

Q: What about the IC50 [8] of the same compound?
A: > 20 µM

Q: What about the IC50 [9] of the same compound?
A: > 20 µM
